EC50 data for 1 compound are collected here from PubChem BioAssay AID602426 (Sanford-Burnham Center for Chemical Genomics, 2012).

In the assay the target is Neurotensin receptor type 1 (Homo sapiens) (UniProt P30989). The assay can be described thus: neurotensin receptor 1 activation by analogs – imaging, image-based, set 4, SAR follow-up (AID 602426). The note with it: NTR1-U2OS beta-arrestin-GFP spot imaging.
Chain of Neurotensin receptor type 1 (Homo sapiens) (P30989 whole entry, looked up): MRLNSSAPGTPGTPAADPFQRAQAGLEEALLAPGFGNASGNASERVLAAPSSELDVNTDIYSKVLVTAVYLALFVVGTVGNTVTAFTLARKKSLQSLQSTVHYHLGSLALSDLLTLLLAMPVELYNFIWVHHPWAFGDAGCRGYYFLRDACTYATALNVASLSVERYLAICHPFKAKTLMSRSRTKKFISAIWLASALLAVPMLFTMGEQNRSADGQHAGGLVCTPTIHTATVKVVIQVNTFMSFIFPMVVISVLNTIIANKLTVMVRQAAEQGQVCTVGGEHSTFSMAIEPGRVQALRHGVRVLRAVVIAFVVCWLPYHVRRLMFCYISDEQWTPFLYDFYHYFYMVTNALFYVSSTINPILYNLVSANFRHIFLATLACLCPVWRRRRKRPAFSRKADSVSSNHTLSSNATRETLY

Consider `COc1cccc(OC)c1-c1cc(C(=O)N[C@@H](CC(C)C)C(=O)O)nn1-c1ccnc2cc(Cl)ccc12`, for which the EC50 is 925 nM.

By EC50 is commonly meant the concentration needed to bring the measured effect to its halfway point.
